Results published in patent US11021445B2, “Carboxylic acid derivative as AT2R receptor antagonist” (SHANDONG DANHONG PHARMACEUTICAL CO., LTD., priority 2017, dated 2021).

Biological target: T1, hAT2 (Homo sapiens, UniProt P50052)
T1 construct: expressed in transfected cells; host or cells: HEK-293
T1 sequence (P50052 1-363): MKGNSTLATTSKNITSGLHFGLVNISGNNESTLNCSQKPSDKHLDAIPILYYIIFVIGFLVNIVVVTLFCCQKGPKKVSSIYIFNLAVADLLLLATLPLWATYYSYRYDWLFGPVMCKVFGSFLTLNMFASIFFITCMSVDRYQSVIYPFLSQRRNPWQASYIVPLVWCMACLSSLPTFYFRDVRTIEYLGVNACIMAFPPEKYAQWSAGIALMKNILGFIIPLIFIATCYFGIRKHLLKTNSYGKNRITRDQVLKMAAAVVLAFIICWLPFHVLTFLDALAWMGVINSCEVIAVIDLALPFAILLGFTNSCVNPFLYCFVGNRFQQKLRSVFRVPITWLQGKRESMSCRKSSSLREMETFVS
Assay: hAT2 receptor binding assay (SPA, [125I]-Sar1-Ile8-Angiotensin II)
Settings: membrane of HEK-293 cells overexpressing hAT2; 0.1 nM 125I ligand
Experimental: hAT2 Receptor Binding Assay
Protease inhibitor mixture, free of ethylenediaminetetraacetic acid-1 tablets (Roche #11873580001) (50 mL plus one piece)
Experimental Methods and Steps
The reference ligand PD123319 and the test compound were prepared into a 750 μM mother liquor by DMSO; each compound was prepared into a solution of 8 concentration gradients (up to a concentration of 750 μM, 3-fold dilution) and 10 μl of the solution was added to a master of a 384-well plate per well.
The SPA beads were prepared to a mother liquor of 25 mg/ml by the buffer;
The isotope [^125I]-Sar1-Ile8-Angiotensin II was prepared into a mother liquor of 50 μCi/ml by adding pure water.
The cell membrane overexpressing hAT2 in HEK-293 cells was prepared to 2.5 mg/ml by the buffer.
200 nl of compound was aspirated from the mother plate with ECHO to each well of the 384-well test plate. ZPE was added to an equal volume of DMSO. (The concentration of the test compound in the reaction was diluted by 250 times).
A 50 ml membrane solution containing 10 μg/μl of magnetic beads and 0.05 μg/μl of AT2 was prepared, placed on a shaker and uniformly mixed. (100 rpm, 30 min). The test plate finally contained an hAT2 membrane with 1.25 μg/well and magnetic beads with 250 μg/well.
A 3.2 ml membrane liquid mixture was added to the compound test plate by using a Multidrop Combi pipette, and 25 μl was added to each well.
A 0.2 nM solution was prepared with 50 μCi/ml of isotope [^125I]-Sar1-Ile8-Angiotensin II mother liquor by the buffer, and 0.2 nM of ^125I was added to the compound test plate with a Multidrop Combi pipette. A volume of 25 μl was added to each well. The final concentration of ^125I isotope is 0.1 nM.
The prepared test plate was placed on a shaker overnight at room temperature at 200 rpm.
The test plate was centrifuged with a centrifuge at 1200 rpm for 1 min.
The centrifuged test plate was read with Microbeta.

## COc1ccc2c(c1OCc1ccccc1)C[C@@H](C(=O)O)N(C(=O)[C@@H](OC1CCC3CC31)c1ccccc1)C2 (single isomer, unassigned) [Compound 59]
  IC50: 22.7 nM

## COc1ccc2c(c1OCc1ccccc1)C[C@@H](C(=O)O)N(C(=O)[C@H](Oc1ccc(F)cc1)c1ccccc1)C2 [Compound 32]
  IC50: 78.3 nM

## COc1ccc2c(c1OCc1ccccc1)C[C@@H](C(=O)O)N(C(=O)[C@H](OC1COC1)c1ccccc1)C2 [Compound 14]
  IC50: > 3000 nM

## CC1(O[C@H](C(=O)N2Cc3cccc(OCc4ccccc4)c3C[C@H]2C(=O)O)c2ccccc2)CCCC1 [Compound 79]
  IC50: 5.8 nM

## COc1ccc2c(c1OCc1ccccc1)C[C@@H](C(=O)O)N(C(=O)[C@@H](O[C@H]1CCOC1)c1ccccc1)C2 (single isomer, unassigned) [Compound 11]
  IC50: > 3000 nM

## COc1ccc2c(c1OCc1ccccc1)C[C@@H](C(=O)O)N(C(=O)[C@@H](Oc1ccccc1)c1ccccc1)C2 [Compound 19]
  IC50: 250 nM

## COc1ccc2c(c1OCc1ccccc1)C[C@@H](C(=O)O)N(C(=O)[C@@H](Oc1ccccc1F)c1ccccc1)C2 [Compound 17]
  IC50: 143 nM

## COc1ccc2c(c1OCc1ccccc1)C[C@@H](C(=O)O)N(C(=O)[C@H](OC1CCC3CC31)c1ccccc1)C2 (single isomer, unassigned) [Compound 62]
  IC50: 270 nM

## COc1ccc2c(c1OCc1ccccc1)C[C@@](C)(C(=O)O)N(C(=O)[C@@H](OC1CCCC1)c1ccccc1)C2 [Compound 113]
  IC50: > 3000 nM

## COc1ccc2c(c1OCc1ccccc1)C[C@@H](C(=O)O)N(C(=O)[C@H](Oc1ccc3ccccc3c1)c1ccccc1)C2 [Compound 36]
  IC50: 97.1 nM

## O=C(O)[C@@H]1Cc2c(cccc2OCc2ccccc2)CN1C(=O)[C@@H](O[C@H]1C[C@@H](O)C1)c1ccccc1 [Compound 85]
  IC50: 83.5 nM

## O=C(O)[C@H]1Cc2c(ccc(Cl)c2OCc2ccccc2)CN1C(=O)[C@@H](OC1CCCC1)c1ccccc1 [Compound 108]
  IC50: 234 nM

## COc1ccc2c(c1OCc1ccccc1)C[C@@H](C(=O)O)N(C(=O)[C@H](Oc1ccc(F)cc1F)c1ccccc1)C2 [Compound 28]
  IC50: 29.8 nM

## COc1ccc2c(c1OCc1ccccc1)C[C@@H](C(=O)O)N(C(=O)[C@@H](OCC(F)(F)F)c1ccccc1)C2 [Compound 7]
  IC50: 35.2 nM

## COc1ccc2c(c1OCc1ccccc1)C[C@@H](C(=O)O)N(C(=O)[C@H](Oc1ccccc1F)c1ccccc1)C2 [Compound 18]
  IC50: 54.1 nM

## CCCCO[C@@H](C(=O)N1Cc2ccc(OC)c(OCc3ccccc3)c2C[C@H]1C(=O)O)c1ccccc1 [Compound 6]
  IC50: 383 nM

## O=C(O)[C@@H]1Cc2c(ccc(Cl)c2OCc2ccccc2)CN1C(=O)[C@H](O[C@H]1CC[C@@H](O)CC1)c1ccccc1 [Compound 78]
  IC50: 7.4 nM

## O=C(O)[C@@H]1Cc2c(cccc2OCc2ccccc2)CN1C(=O)[C@H](OC1CC(F)(F)C1)c1ccccc1 [Compound 84]
  IC50: 481 nM

## COc1ccc2c(c1OCc1ccccc1)C[C@@H](C(=O)O)N(C(=O)[C@H](Oc1c(F)cc(F)cc1F)c1ccccc1)C2 [Compound 16]
  IC50: 16.5 nM

## COc1ccc2c(c1OCc1ccccc1)C[C@@H](C(=O)O)N(C(=O)[C@H](NC1CCCC1)c1ccccc1)C2 [Compound 41]
  IC50: 216 nM

## COc1ccc2c(c1OCc1ccccc1)C[C@@H](C(=O)O)N(C(=O)[C@@H](Oc1ccc(F)cc1F)c1ccccc1)C2 [Compound 27]
  IC50: 245 nM

## COc1ccc2c(c1OCc1ccccc1)C[C@@H](C(=O)O)N(C(=O)[C@@H](Oc1ccc(C#N)cc1)c1ccccc1)C2 [Compound 29]
  IC50: 231 nM

## COCCO[C@H](C(=O)N1Cc2ccc(OC)c(OCc3ccccc3)c2C[C@H]1C(=O)O)c1ccccc1 [Compound 3]
  IC50: 197 nM

## CCCCO[C@H](C(=O)N1Cc2ccc(OC)c(OCc3ccccc3)c2C[C@H]1C(=O)O)c1ccccc1 [Compound 5]
  IC50: 17.7 nM

## COc1ccc2c(c1OCc1ccccc1)C[C@](C)(C(=O)O)N(C(=O)[C@H](OC1CCCC1)c1ccccc1)C2 [Compound 114]
  IC50: 412 nM

## COc1ccc2c(c1OCc1ccccc1)C[C@@H](C(=O)O)N(C(=O)[C@@H](Oc1c(F)cc(F)cc1F)c1ccccc1)C2 [Compound 15]
  IC50: 96.4 nM

## Cc1ccc2c(c1OCc1ccccc1)C[C@@H](C(=O)O)N(C(=O)[C@@H](OC1CC(F)(F)C1)c1ccccc1)C2 [Compound 67]
  IC50: 1.6 nM

## Cc1ccc2c(c1OCc1ccccc1)C[C@@H](C(=O)O)N(C(=O)[C@H](OC1CC(F)(F)C1)c1ccccc1)C2 [Compound 68]
  IC50: 67 nM

## COc1ccc2c(c1OCc1ccccc1)C[C@@H](C(=O)O)N(C(=O)[C@@H](OC1CCC3CC31)c1ccccc1)C2 (single isomer, unassigned) [Compound 60]
  IC50: 2.5 nM

## COc1ccc2c(c1OCc1ccccc1)C[C@@H](C(=O)O)N(C(=O)[C@H](Oc1ccc(C#N)cc1)c1ccccc1)C2 [Compound 30]
  IC50: 373 nM

## COc1ccc2c(c1OCc1ccccc1)C[C@@H](C(=O)O)N(C(=O)[C@H](O[C@H]1CC[C@H](O)CC1)c1ccccc1)C2 [Compound 66]
  IC50: > 3000 nM

## COc1ccc2c(c1OCc1ccccc1)C[C@@](C)(C(=O)O)N(C(=O)[C@H](OC1CCCC1)c1ccccc1)C2 [Compound 115]
  IC50: 115 nM

## COc1ccc2c(c1OCc1ccccc1)C[C@@H](C(=O)O)N(C(=O)[C@H](OC1CCCC1)c1ccc(F)cc1)C2 [Compound 54]
  IC50: > 3000 nM

## COc1ccc2c(c1OCc1ccccc1)C[C@@H](C(=O)O)N(C(=O)[C@@H](NC(=O)C1CCCC1)c1ccccc1)C2 [Compound 42]
  IC50: 161 nM

## COc1ccc2c(c1OCc1ccccc1)C[C@@H](C(=O)O)N(C(=O)[C@@H](OC1CC3CC3C1)c1ccccc1)C2 (stereo partly drawn) [Compound 55]
  IC50: 4.4 nM

## COc1ccc2c(c1OCc1ccccc1)C[C@@H](C(=O)O)N(C(=O)C(OC1CCC(O)CC1)c1ccccc1)C2 (stereo partly drawn) [Compound 48]
  IC50: 21.4 nM

## COc1ccc(O[C@@H](C(=O)N2Cc3ccc(OC)c(OCc4ccccc4)c3C[C@H]2C(=O)O)c2ccccc2)cc1 [Compound 24]
  IC50: 192 nM

## COc1ccc2c(c1OCc1ccccc1)C[C@@H](C(=O)O)N(C(=O)C(Oc1ccccc1)c1ccccc1)C2 (stereo partly drawn) [Compound 46]
  IC50: 186 nM

## COc1ccc2c(c1OCc1ccccc1)C[C@@H](C(=O)O)N(C(=O)[C@H](Oc1cccs1)c1ccccc1)C2 [Compound 26]
  IC50: 95.1 nM

## COc1ccc2c(c1OCc1ccccc1)C[C@@H](C(=O)O)N(C(=O)[C@@H](O[C@@H]1CCOC1)c1ccccc1)C2 (single isomer, unassigned) [Compound 9]
  IC50: 47.6 nM

## COc1ccc2c(c1OCc1ccccc1)C[C@@H](C(=O)O)N(C(=O)[C@@H](Oc1ccc(Cl)cc1)c1ccccc1)C2 [Compound 33]
  IC50: 648 nM

## COc1ccc2c(c1OCc1cccs1)C[C@@H](C(=O)O)N(C(=O)[C@@H](OC1CCCC1)c1ccccc1)C2 [Compound 117]
  IC50: 9.1 nM

## N#Cc1ccc2c(c1OCc1ccccc1)C[C@@H](C(=O)O)N(C(=O)[C@@H](OC1CCCC1)c1ccccc1)C2 [Compound 109]
  IC50: 1050 nM

## COc1ccc2c(c1OCc1ccccc1)C[C@@H](C(=O)O)N(C(=O)[C@H](O[C@@H]1CCOC1)c1ccccc1)C2 (single isomer, unassigned) [Compound 10]
  IC50: 60.7 nM

## COc1ccc2c(c1OCc1ccccc1)C[C@@H](C(=O)O)N(C(=O)[C@H](c1ccccc1)N(C)C1CCCC1)C2 [Compound 45]
  IC50: 487 nM
